What is called melting point is the temperature, or range, at which the solid turns liquid.

SMILES strings stand for the structures.

This is an account of results in patent publication US6503939B2, “Combination regimens using 3,3-substituted indoline derivatives” (Wyeth, priority 1999, dated 2003).

With `CC1Nc2ccc(-c3cccc([N+](=O)[O-])c3)cc2C1(C)C.Cl` (stereo not shown), the melting point was in the range of 240 to 241 °C.
